The target in test [1] is Cholinesterase (Homo sapiens, UniProt P06276). The test is described as follows: Inhibition of BChE (unknown origin).
In test [2] the target is Acetylcholinesterase (Homo sapiens, UniProt P22303). As to the kind of experiment: Inhibition of AChE (unknown origin).
The subject of test [3] is HeLa. The test is described as follows: Antiproliferative activity against human HeLa cells. In kind it is functional, cell-based.
For test [4], the system named is MDA-MB-231. The test is described as follows: cells. In kind it is functional, cell-based. To be noted: Homo sapiens.
Description: Antiproliferative activity against human MDA-MB-231 cells
The test system of test [5] is Streptococcus mutans. As to the kind of experiment: Antibacterial activity against Streptococcus mutans PTCC 1601. In kind it is functional.
In test [6] the test system is Escherichia coli. The test is described as follows: Antimicrobial activity against Escherichia coli ATCC 25922. In kind it is functional.
For test [7], the system named is Bacillus subtilis. As to the kind of experiment: Antibacterial activity against Bacillus subtilis ATCC 465. In kind it is functional.
Test [8] has as its system Staphylococcus aureus. The test is described as follows: Antibacterial activity against Staphylococcus aureus ATCC 25923. In kind it is functional.
Test [9] concerns Klebsiella pneumoniae. As to the kind of experiment: Antibacterial activity against Klebsiella pneumoniae ATCC 29655. In kind it is functional.
Test [10] deals with Pseudomonas aeruginosa. As to the kind of experiment: Antibacterial activity against Pseudomonas aeruginosa ATCC 85327. In kind it is functional.
For test [11], the system named is Micrococcus luteus. As to the kind of experiment: Antibacterial activity against Micrococcus luteus PTCC 1110. In kind it is functional.
In test [12] the test system is Enterococcus faecalis. As to the kind of experiment: Antibacterial activity against Enterococcus faecalis ATCC 29737. In kind it is functional.
In test [13] the test system is Bacillus pumilus. As to the kind of experiment: Antibacterial activity against Bacillus pumilus PTCC 1114. In kind it is functional.
For test [14], the system named is Staphylococcus epidermidis. The test is described as follows: Antibacterial activity against Staphylococcus epidermidis ATCC 12228. In kind it is functional.
In test [15] the test system is Staphylococcus aureus. The test is described as follows: Antibacterial activity against Staphylococcus aureus assessed as zone of inhibition. In kind it is functional.
Test [16] deals with Escherichia coli. The test is described as follows: Antibacterial activity against Escherichia coli assessed as zone of inhibition. In kind it is functional.
For test [17], the system named is Aspergillus niger. The test is described as follows: Antifungal activity against Aspergillus niger assessed as zone of inhibition at 25 ug/ml. To be noted: read-out: DIZ. In kind it is functional.
Test [18] deals with Candida metapsilosis. The test is described as follows: Antifungal activity against Candida metapsilosis assessed as zone of inhibition at 25 ug/ml. In kind it is functional. To be noted: Lodderomyces metapsilosis, read-out: DIZ.
Test [19] relates to Candida albicans. As to the kind of experiment: Antifungal activity against Candida albicans. In kind it is functional.
Test [20] has as its system Candida tropicalis. The test is described as follows: Antifungal activity against Candida tropicalis. In kind it is functional.
Test [21] relates to Nakaseomyces glabratus. As to the kind of experiment: Antifungal activity against Candida glabrata. In kind it is functional.
Test [22] relates to Pseudomonas aeruginosa. As to the kind of experiment: Antibacterial activity against multidrug resistant Pseudomonas aeruginosa 025. In kind it is functional.
For test [23], the system named is Staphylococcus aureus. As to the kind of experiment: Antibacterial activity against Staphylococcus aureus by disc diffusion method. In kind it is functional.
Test [24] has as its system Pseudomonas aeruginosa. The test is described as follows: Antibacterial activity against multidrug resistant Pseudomonas aeruginosa 034. In kind it is functional.
The subject of test [25] is Bacillus subtilis. As to the kind of experiment: Antibacterial activity against Bacillus subtilis by agar well diffusion method. In kind it is functional.
Test [26] deals with Escherichia coli. The test is described as follows: Antibacterial activity against Escherichia coli by disc diffusion method. In kind it is functional.
Test [27] has as its system Geotrichum candidum. As to the kind of experiment: Antifungal activity against Geotrichum candidum RCMB 05097 assessed as zone of inhibition. In kind it is functional.
Test [28] concerns Aspergillus fumigatus. As to the kind of experiment: Antifungal activity against Aspergillus fumigatus RCMB 02568 assessed as zone of inhibition. In kind it is functional.
In test [29] the test system is Candida albicans. As to the kind of experiment: Antifungal activity against Candida albicans RCMB 05036 assessed as zone of inhibition. In kind it is functional.
Test [30] has as its system Syncephalastrum racemosum. As to the kind of experiment: Antifungal activity against Syncephalastrum racemosum RCMB 05922 assessed as zone of inhibition. In kind it is functional.
The test system of test [31] is A549. The test is described as follows: Cytotoxicity against human A549 cells incubated for 48 hrs by MTT assay. In kind it is functional, cell-based. The settings on record: A549, 48 h.
For test [32], the system named is HeLa. The test is described as follows: Cytotoxicity against human HeLa cells incubated for 48 hrs by MTT assay. In kind it is functional, cell-based.
For test [33], the system named is MCF7. As to the kind of experiment: Cytotoxicity against human MCF7 cells incubated for 48 hrs by MTT assay. In kind it is functional, cell-based. To be noted: MCF7, 48 h.
For test [34], the system named is DU-145. As to the kind of experiment: Cytotoxicity against human DU-145 cells incubated for 48 hrs by MTT assay. In kind it is functional, cell-based. To be noted: DU-145, 48 h.

≈ marks a conversion by molar mass, not a printed value.

Chain of Acetylcholinesterase (P22303 whole entry): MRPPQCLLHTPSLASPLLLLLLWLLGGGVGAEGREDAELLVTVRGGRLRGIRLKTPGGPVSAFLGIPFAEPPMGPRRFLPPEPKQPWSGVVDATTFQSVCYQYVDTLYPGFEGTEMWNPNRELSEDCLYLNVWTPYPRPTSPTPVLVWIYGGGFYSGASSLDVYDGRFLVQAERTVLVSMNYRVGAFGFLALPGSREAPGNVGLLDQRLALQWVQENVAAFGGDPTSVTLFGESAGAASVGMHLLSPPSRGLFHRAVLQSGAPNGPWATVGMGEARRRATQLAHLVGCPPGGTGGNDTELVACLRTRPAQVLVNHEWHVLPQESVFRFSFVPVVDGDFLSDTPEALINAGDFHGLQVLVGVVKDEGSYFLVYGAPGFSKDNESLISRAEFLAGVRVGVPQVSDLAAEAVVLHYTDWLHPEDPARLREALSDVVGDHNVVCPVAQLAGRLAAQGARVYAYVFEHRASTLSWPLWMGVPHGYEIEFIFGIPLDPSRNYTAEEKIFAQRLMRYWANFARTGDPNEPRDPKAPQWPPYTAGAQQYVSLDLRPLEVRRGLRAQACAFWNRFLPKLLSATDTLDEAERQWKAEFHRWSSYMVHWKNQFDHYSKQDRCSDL
Chain of Cholinesterase (P06276 whole entry): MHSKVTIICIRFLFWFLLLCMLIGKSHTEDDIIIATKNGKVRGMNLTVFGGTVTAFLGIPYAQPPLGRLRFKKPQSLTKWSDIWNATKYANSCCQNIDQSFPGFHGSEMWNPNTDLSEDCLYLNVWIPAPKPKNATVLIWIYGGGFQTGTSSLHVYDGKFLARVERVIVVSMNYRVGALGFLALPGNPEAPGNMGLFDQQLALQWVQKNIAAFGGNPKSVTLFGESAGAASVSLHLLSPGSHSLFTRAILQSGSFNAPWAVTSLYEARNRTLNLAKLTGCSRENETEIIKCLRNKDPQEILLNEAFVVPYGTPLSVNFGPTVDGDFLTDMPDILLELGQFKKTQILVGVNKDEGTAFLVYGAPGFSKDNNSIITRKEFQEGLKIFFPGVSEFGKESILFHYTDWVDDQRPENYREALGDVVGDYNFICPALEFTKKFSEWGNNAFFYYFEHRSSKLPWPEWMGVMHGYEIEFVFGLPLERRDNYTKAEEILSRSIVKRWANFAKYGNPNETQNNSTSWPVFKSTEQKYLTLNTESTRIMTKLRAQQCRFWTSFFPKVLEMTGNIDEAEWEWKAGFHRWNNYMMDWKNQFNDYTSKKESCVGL

For the compound `COc1cc2c(cc1OC)C(=O)[C@]1(C2)[C@H](c2cccc([N+](=O)[O-])c2)[C@H](Cc2c[nH]c3ccccc23)NC12C(=O)Nc1ccccc12` (some centres undefined), the IC50 came to 28.4 µM in test [1] and 1890 nM in [2].
In the case of `N#CC1=C(N)Oc2c(ccc3[nH]c4ccccc4c23)C12C(=O)N(Cc1cn(Cc3ccc(C(F)(F)F)cc3)nn1)c1ccccc12` (centres undefined), the IC50 worked out at 3.5 µM in [3] and 61.9 µM in [4].
Regarding `O=C1c2c(Cl)cccc2NC2(C(=O)Nc3ccc([N+](=O)[O-])cc32)N1Nc1ccccc1` (centres undefined), the MIC in test [5] is 8 µg/mL (≈ 18.4 µM); in [6], less than 2 µg/mL; in test [7] it was less than 2 µg/mL; in [8], 2 µg/mL (≈ 4.59 µM); in test [9], 16 µg/mL (≈ 36.7 µM); in test [10], 16 µg/mL (≈ 36.7 µM). The MIC in test [11] was 2 µg/mL (≈ 4.59 µM); in test [12] it was 8 µg/mL (≈ 18.4 µM); in test [13], less than 2 µg/mL; in test [14], 2 µg/mL (≈ 4.59 µM).
Take `N#CC1=C(N)Oc2c(ccc3[nH]c4ccccc4c23)C12C(=O)N(Cc1cn(Cc3ccc([N+](=O)[O-])cc3)nn1)c1ccccc12` (centres undefined): the IC50 in test [3] came out at 6.3 µM; in test [4], 51.2 µM.
`CCOC1=Nc2ccc(Br)cc2/C1=C\C(=O)c1cccc2ccccc12`: the “diameter of the inhibition zone (DIZ)” value in test [15] and in test [16] was 6 mm in each case.
In the case of `COc1cccc([C@@H]2[C@H](Cc3c[nH]c4ccccc34)NC3(C(=O)Nc4ccccc43)[C@@]23Cc2cc(OC)c(OC)cc2C3=O)c1` (some centres undefined), the values for the IC50 in test [1] and in [2] were 8.32 µM and 2310 nM, respectively.
Regarding `CCOC1=Nc2ccc(Br)cc2/C1=C\C(=O)c1ccccc1O`, the zone of inhibition at 25 µg/mL in test [17] and in test [18] was 11 mm throughout.
Take `O=C1c2ccccc2NC2(C(=O)Nc3ccc([N+](=O)[O-])cc32)N1Nc1ccccc1` (centres undefined): the MIC in test [5] was less than 2 µg/mL; in test [6] it was 4 µg/mL (≈ 9.97 µM); in test [7], 4 µg/mL (≈ 9.97 µM); in test [8], 4 µg/mL (≈ 9.97 µM); in test [9], 8 µg/mL (≈ 19.9 µM); in test [10] it was 32 µg/mL (≈ 79.7 µM). The MIC was 8 µg/mL (≈ 19.9 µM) in test [11], 16 µg/mL (≈ 39.9 µM) in test [12], 4 µg/mL (≈ 9.97 µM) in test [13] and 4 µg/mL (≈ 9.97 µM) in test [14].
Consider `Cc1ccc(C2C3CCCN3C3(C(=O)Nc4ccccc43)C2C(=O)c2ccc(-c3ccc(F)cc3F)cc2)cc1` (centres undefined), for which the MIC was 12.5 µg/mL (≈ 23.4 µM) in test [19], 25 µg/mL (≈ 46.8 µM) in test [20] and 25 µg/mL (≈ 46.8 µM) in test [21].
Consider `O=C(O)c1cn(C2CC2)c2cc(N3CCNCC3)c(F)cc2c1=O` [CIPROFLOXACIN], for which the MIC in test [22] was 32 µg/mL (≈ 96.6 µM); in test [23], 50 µg/mL (≈ 151 µM); in test [24] it was 32 µg/mL (≈ 96.6 µM); in test [25], 6.25 µg/mL (≈ 18.9 µM); in test [26] it was 25 µg/mL (≈ 75.4 µM).
On to `COc1ccccc1C1C2CCCN2C2(C(=O)Nc3ccccc32)C1C(=O)c1ccc(-c2ccc(F)cc2F)cc1` (centres undefined), for which the MIC in test [19], in [20] and in [21] was 12.5 µg/mL (≈ 22.7 µM) throughout.
Turning to `COc1cc2c(cc1OC)C(=O)[C@]1(C2)[C@H](c2ccccc2OC)[C@H](Cc2c[nH]c3ccccc23)NC12C(=O)Nc1ccccc12` (some centres undefined), the IC50 came to 24 µM in [1] and 2760 nM in test [2].
With `COC1=CC(=O)C[C@@H](C)[C@]12Oc1c(Cl)c(OC)cc(OC)c1C2=O` [GRISEOFULVIN], the zone of inhibition at 25 µg/mL in [17] and in [18] was 10 mm in each case.
In the case of `Cc1ccc([C@H]2[C@@]3(SC(=S)NC3=O)C3CCCN3[C@@]23C(=O)Nc2ccccc23)cc1` (some centres undefined), the “diameter of the inhibition zone (DIZ)” value was found to be 27 mm in test [27], 18 mm in [28], 27 mm in [29] and 19 mm in test [30].
`O=C1OCC2=C1C1(Nc3ccccc3N2)C(=O)N(Cc2ccccc2)c2ccccc21` (centres undefined): the IC50 was 1300 nM in test [31], 2300 nM in test [32], 2200 nM in test [33] and 1100 nM in [34].
The like results for `COc1cc([C@@H]2c3cc4c(cc3[C@@H](O[C@@H]3O[C@@H]5CO[C@@H](C)O[C@H]5[C@H](O)[C@H]3O)[C@H]3COC(=O)[C@H]23)OCO4)cc(OC)c1O` [ETOPOSIDE] were, in that order, 2200 nM, 1000 nM, 1600 nM and 2100 nM.

Values taken from ChEMBL document CHEMBL5226286, “The application of isatin-based multicomponent-reactions in the quest for new bioactive and druglike molecules” (Eur J Med Chem, 2021).
